From article PMC4450297, “Screening Active Compounds from Garcinia Species Native to China Reveals Novel Compounds Targeting the STAT/JAK Signaling Pathway” (BioMed Research International, 2015)

Assays:
Test in all cases: Cell panel screen (CellTiter-Glo)
Assay type in all cases: cell-based, human
[1] = tested on: Colo 205; conditions: Colo 205, 20 micromolar, 72 hrs
Summary of the method: (§1)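 Percent growth inhibition at one concentration (20 μM final) after 72 h treatment, derived from cellular ATP luminescence and normalised between DMSO-treated cells and wells lacking cells.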

[2] = tested on: NCI-H524; conditions: NCI-H524 (Lung), 20 micromolar, 72 hrs
Summary of the method: as §1

[3] = tested on: Bel-7402; conditions: Bel-7402 (Liver), 20 micromolar, 72 hrs
Summary of the method: as §1

[4] = tested on: BT-549; conditions: BT-549 (Breast), 20 micromolar, 72 hrs
Summary of the method: as §1

[5] = tested on: J82; conditions: J82 (Urinary bladder), 20 micromolar, 72 hrs
Summary of the method: as §1

[6] = tested on: ZR-75-30; conditions: ZR-75-30 (Breast), 20 micromolar, 72 hrs
Summary of the method: as §1

[7] = tested on: NCI-H2347; conditions: NCI-H2347 (Lung), 20 micromolar, 72 hrs
Summary of the method: as §1

[8] = tested on: NCI-H1694; conditions: NCI-H1694 (Lung), 20 micromolar, 72 hrs
Summary of the method: as §1

[9] = tested on: BT-474; conditions: BT-474 (Breast), 20 micromolar, 72 hrs
Summary of the method: as §1

[10] = tested on: CCF-STTG1; conditions: CCF-STTG1 (Brain), 20 micromolar, 72 hrs
Summary of the method: as §1

[11] = tested on: T47D; conditions: T47D (Breast), 20 micromolar, 72 hrs
Summary of the method: as §1

[12] = tested on: C8166; conditions: C8166 (Leukemia), 20 micromolar, 72 hrs
Summary of the method: as §1

[13] = tested on: HT-1197; conditions: HT-1197 (Urinary bladder), 20 micromolar, 72 hrs
Summary of the method: as §1

[14] = tested on: NCI-H28; conditions: NCI-H28 (Lung), 20 micromolar, 72 hrs
Summary of the method: as §1

[15] = tested on: HCC1395; conditions: HCC1395 (Breast), 20 micromolar, 72 hrs
Summary of the method: as §1

[16] = tested on: A704; conditions: A704 (Kidney), 20 micromolar, 72 hrs
Summary of the method: as §1

[17] = tested on: HCC1937; conditions: HCC1937 (Breast), 20 micromolar, 72 hrs
Summary of the method: as §1

[18] = tested on: Panc 03.27; conditions: Panc 03.27 (Pancreas), 20 micromolar, 72 hrs
Summary of the method: as §1

[19] = tested on: NCI-H2405; conditions: NCI-H2405 (Lung), 20 micromolar, 72 hrs
Summary of the method: as §1

[20] = tested on: HCC1569; conditions: HCC1569 (Breast), 20 micromolar, 72 hrs
Summary of the method: as §1

[21] = tested on: HEC-1-A; conditions: HEC-1-A (Uterus), 20 micromolar, 72 hrs
Summary of the method: as §1

[22] = tested on: SW13; conditions: SW13 (Adrenal gland), 20 micromolar, 72 hrs
Summary of the method: as §1

[23] = tested on: C3A; conditions: C3A (Liver), 20 micromolar, 72 hrs
Summary of the method: as §1

[24] = tested on: RL95; conditions: RL95 (Uterus), 20 micromolar, 72 hrs
Summary of the method: as §1

[25] = tested on: HPAF-II; conditions: HPAF-II (Pancreas), 20 micromolar, 72 hrs
Summary of the method: as §1

[26] = tested on: CW-2; conditions: CW-2 (Colon), 20 micromolar, 72 hrs
Summary of the method: as §1

[27] = tested on: TCCSUP; conditions: TCCSUP (Urinary bladder), 20 micromolar, 72 hrs
Summary of the method: as §1

[28] = tested on: MSTO-211-H; conditions: MSTO-211-H (Lung), 20 micromolar, 72 hrs
Summary of the method: as §1

[29] = tested on: NCI-H1770; conditions: NCI-H1770 (Lung), 20 micromolar, 72 hrs
Summary of the method: as §1

[30] = tested on: HCC1599; conditions: HCC1599 (Breast), 20 micromolar, 72 hrs
Summary of the method: as §1

[31] = tested on: NCI-H1623; conditions: NCI-H1623 (Lung), 20 micromolar, 72 hrs
Summary of the method: as §1

[32] = tested on: A498; conditions: A498 (listed under Lung), 20 micromolar, 72 hrs
Summary of the method: as §1

[33] = tested on: T98G; conditions: T98G (Brain), 20 micromolar, 72 hrs
Summary of the method: as §1

[34] = tested on: ChaGo-K-1; conditions: ChaGo-K-1 (Lung), 20 micromolar, 72 hrs
Summary of the method: as §1

[35] = tested on: M059J; conditions: M059J (Brain), 20 micromolar, 72 hrs
Summary of the method: as §1

[36] = tested on: HGC-27; conditions: HGC-27 (Stomach), 20 micromolar, 72 hrs
Summary of the method: as §1

Compound | Percent Inhibition [1] | Percent Inhibition [2] | Percent Inhibition [3] | Percent Inhibition [4] | Percent Inhibition [5] | Percent Inhibition [6] | Percent Inhibition [7] | Percent Inhibition [8] | Percent Inhibition [9] | Percent Inhibition [10] | Percent Inhibition [11] | Percent Inhibition [12] | Percent Inhibition [13] | Percent Inhibition [14] | Percent Inhibition [15] | Percent Inhibition [16] | Percent Inhibition [17] | Percent Inhibition [18] | Percent Inhibition [19] | Percent Inhibition [20] | other results
COc1cc(O)c2c(=O)c3cc4c(c(O)c3oc2c1CC=C(C)C)OC(C)(C)C=C4 [gl-12] | 10% | -2% | 5% | -2% | 17% | 54% | 9% | 28% | -2% | 16% | 21% | 25% | 20% | 2% | 22% | 3% | -7% | 24% | 11% | 19% | Percent Inhibition [21]: 13%; Percent Inhibition [22]: -2%; Percent Inhibition [23]: 7%; Percent Inhibition [24]: 23%; Percent Inhibition [25]: 21%; Percent Inhibition [26]: 28%; Percent Inhibition [27]: 11%; Percent Inhibition [28]: -5%; Percent Inhibition [29]: 34%; Percent Inhibition [30]: 52%; Percent Inhibition [31]: 5%; Percent Inhibition [32]: 11%; Percent Inhibition [33]: 28%; Percent Inhibition [34]: 38%; Percent Inhibition [35]: 27%; Percent Inhibition [36]: 34%
O=c1c2cc(O)ccc2oc2cccc(O)c12 [Gof3] | 22% | 18% | 45% | 16% | 20% | 41% | 20% | 29% | 7% | 31% | 10% | 29% | 28% | 27% | 35% | 23% | 8% | 7% | -13% | 29% | Percent Inhibition [21]: 19%; Percent Inhibition [22]: 33%; Percent Inhibition [23]: 7%; Percent Inhibition [24]: 42%; Percent Inhibition [25]: 15%; Percent Inhibition [26]: 39%; Percent Inhibition [27]: 32%; Percent Inhibition [28]: 36%; Percent Inhibition [29]: 17%; Percent Inhibition [30]: 36%; Percent Inhibition [31]: -7%; Percent Inhibition [32]: 39%; Percent Inhibition [33]: 27%; Percent Inhibition [34]: 12%; Percent Inhibition [35]: 53%; Percent Inhibition [36]: 34%
CC(C)=CCC[C@@]1(C)C=Cc2c(O)c3c(c(CC=C(C)C)c2O1)O[C@]12C(=C[C@@H]4C[C@H]1C(C)(C)O[C@@]2(C/C=C(/C)C(=O)O)C4=O)C3=O [GB11] | 98% | 97% | 98% | 99% | 98% | 99% | 98% | 99% | 98% | 98% | 99% | 99% | 98% | 99% | 98% | 98% | 98% | 99% | 98% | 99% | Percent Inhibition [21]: 99%; Percent Inhibition [22]: 98%; Percent Inhibition [23]: 98%; Percent Inhibition [24]: 99%; Percent Inhibition [25]: 98%; Percent Inhibition [26]: 98%; Percent Inhibition [27]: 99%; Percent Inhibition [28]: 98%; Percent Inhibition [29]: 98%; Percent Inhibition [30]: 99%; Percent Inhibition [31]: 98%; Percent Inhibition [32]: 98%; Percent Inhibition [33]: 99%; Percent Inhibition [34]: 98%; Percent Inhibition [35]: 98%; Percent Inhibition [36]: 98%
CC(C)=CCc1c(O)cc2oc3cc(O)c(O)c(CC=C(C)C)c3c(=O)c2c1O [Ge9] | 98% | 97% | 99% | 97% | 97% | 99% | 89% | 99% | 97% | 99% | 94% | 99% | 97% | 97% | 98% | 96% | 98% | 97% | 96% | 97% | Percent Inhibition [21]: 95%; Percent Inhibition [22]: -3%; Percent Inhibition [23]: 81%; Percent Inhibition [24]: 98%; Percent Inhibition [25]: 96%; Percent Inhibition [26]: 99%; Percent Inhibition [27]: 99%; Percent Inhibition [28]: 98%; Percent Inhibition [29]: 98%; Percent Inhibition [30]: 95%; Percent Inhibition [31]: 91%; Percent Inhibition [32]: 98%; Percent Inhibition [33]: 98%; Percent Inhibition [34]: 97%; Percent Inhibition [35]: -17%; Percent Inhibition [36]: 97%
O=c1c2cc(O)ccc2oc2cccc(O)c12 [gl-20] | 3% | 91% | -3% | 46% | 60% | 87% | 48% | 86% | 50% | 49% | 39% | 76% | 77% | 24% | 74% | 13% | 62% | 52% | -5% | 57% | Percent Inhibition [21]: 41%; Percent Inhibition [22]: 33%; Percent Inhibition [23]: 58%; Percent Inhibition [24]: 67%; Percent Inhibition [25]: 19%; Percent Inhibition [26]: 47%; Percent Inhibition [27]: 67%; Percent Inhibition [28]: 59%; Percent Inhibition [29]: -4%; Percent Inhibition [30]: 83%; Percent Inhibition [31]: -13%; Percent Inhibition [32]: 38%; Percent Inhibition [33]: 73%; Percent Inhibition [34]: 57%; Percent Inhibition [35]: 63%; Percent Inhibition [36]: 69%
